Measurements published in ChEMBL document CHEMBL4421722, “Inhibitors of protein prenyltransferases” (2013).

Species on record: Rattus norvegicus
Assay: Inhibition of rat recombinant geranylgeranyltransferase type I expressed in Escherichia coli assessed as residual enzyme activity for geranylgeranylation of K-Ras4B at 50 uM incubated for 30 mins in presence of [3H]GGPP by scintillation counting assay relative to control
Molecule `Cc1ccc(S(=O)(=O)N2[C@H](CC3CCCC3)[C@@H](SCCC(=O)OC(C)(C)C)[C@@H](C(=O)O)[C@@H]2c2cccc(F)c2)cc1` has an Activity of 31.9%.
For `Cc1ccc(S(=O)(=O)N2[C@@H](c3cccc(C)c3)C(C(=O)O)=CC[C@H]2c2ccc(Cl)c(Cl)c2)cc1`, the Activity was 12.6 to 20.2%.
Work on `CCOc1ccc([C@@H]2C[C@@H](SCc3ccc(Cl)cc3)[C@H](C(=O)O)CN2S(=O)(=O)c2ccc(C)cc2)cc1` yielded an Activity of 3.1 to 3.7%.
Work on `CCCCCS[C@H]1[C@@H](C(=O)O)[C@H](c2cccc(F)c2)N(S(=O)(=O)c2ccc(C)cc2)[C@@H]1CCCC` yielded an Activity of 23.5%.
`CCCCS[C@@H]1C[C@@H](c2ccc(C)cc2)N(S(=O)(=O)c2ccccc2C)C[C@H]1C(=O)O` gave an Activity of 43.5 to 43.7%.
`COc1ccc([C@@H]2C[C@@H](Sc3ccc(Cl)cc3)[C@H](C(=O)O)CN2S(=O)(=O)c2ccc(Cl)cc2)cc1` gave an Activity of 73.2%.
`C=CCS[C@H]1[C@@H](C(=O)O)[C@H](c2ccc(Cl)cc2)N(S(=O)(=O)c2ccccc2C)[C@@H]1CCCC` gave an Activity of 23.1%.
`C=CCS[C@H]1[C@@H](C(=O)O)[C@H](c2ccc(C#N)cc2)N(S(=O)(=O)c2ccc(C)cc2)[C@@H]1CCCCCC` showed an Activity of 21.5%.
For `Cc1ccc(S(=O)(=O)N2[C@@H](c3ccc(Br)cc3)C(C(=O)O)=CC[C@H]2c2ccc(Cl)c(Cl)c2)cc1`, the Activity was 18.7 to 22.8%.
Work on `Cc1ccc([C@@H]2C[C@@H](Sc3ccc(Cl)cc3)[C@H](C(=O)O)CN2S(=O)(=O)c2ccccc2)cc1` yielded an Activity of 78.3%.
Work on `CCCCCC[C@@H]1[C@@H](Sc2ccc(C)cc2)[C@@H](C(=O)O)[C@H](c2ccc(Cl)cc2)N1S(=O)(=O)c1ccccc1` yielded an Activity of 15%.
`C=CCS[C@H]1[C@@H](C(=O)O)[C@H](c2ccc(Cl)c(Cl)c2)N(S(=O)(=O)c2ccc(C)cc2)[C@@H]1CC1CCCC1` was tested, and the Activity was 12.1%.
Molecule `Cc1ccccc1S(=O)(=O)N1C[C@@H](C(=O)O)[C@H](SCc2ccccc2)C[C@H]1c1ccc(Cl)cc1` has an Activity of 8.7 to 12%.
`COc1ccc([C@@H]2C[C@@H](SCCc3ccccc3)[C@H](C(=O)O)CN2S(=O)(=O)c2ccccc2C)cc1` was tested, and the Activity was 15.2 to 19.5%.
`Cc1ccc(S(=O)(=O)N2C(c3ccc(Cl)c(Cl)c3)CC=C(C(=O)O)C2c2cccc(Cl)c2)cc1` (stereo not given) was tested, and the Activity was 10.7 to 26%.
In the case of `Cc1ccc([C@@H]2C[C@@H](Sc3ccccc3)[C@H](C(=O)O)CN2S(=O)(=O)c2ccccc2C)cc1`, the Activity was 69.5%.
For `Cc1ccc(S(=O)(=O)N2C[C@@H](C(=O)O)[C@H](Sc3ccc(Cl)cc3)C[C@H]2c2cccc(Br)c2)cc1`, the Activity was 20.4 to 22.8%.
In the case of `Cc1ccc(S(=O)(=O)N2[C@@H](c3cccc(Cl)c3)C(C(=O)O)=CC[C@H]2c2cccc(Cl)c2)cc1`, the Activity was 43.7 to 43.8%.
`Cc1ccccc1S(=O)(=O)N1[C@@H](c2ccccc2)C(C(=O)O)=CC[C@H]1c1ccc(Cl)cc1` gave an Activity of 13.4%.
With `Cc1ccccc1S(=O)(=O)N1[C@@H](c2cccc(F)c2)C(C(=O)O)=CC[C@H]1c1ccc(Cl)cc1` the Activity was 5.4 to 13.4%.
`COc1ccc([C@H]2C(C(=O)O)=C[C@@H](C(C)(C)C)N2S(=O)(=O)c2ccc(C)cc2)cc1OC` was tested, and the Activity was 23.4%.
Work on `CCC[C@@H]1[C@@H](SCCC(=O)OC(C)(C)C)[C@@H](C(=O)O)[C@H](c2cccc(F)c2)N1S(=O)(=O)c1ccc(C)cc1` yielded an Activity of 20.2%.
For `C=CCS[C@H]1[C@@H](C(=O)O)[C@H](c2ccc(Cl)cc2)N(S(=O)(=O)c2ccccc2C)[C@@H]1CCCCCC`, the Activity was 24.9%.
Molecule `COc1ccc([C@@H]2C[C@@H](SCc3ccccc3)[C@H](C(=O)O)CN2S(=O)(=O)c2ccc(Cl)cc2)cc1` has an Activity of 25.9 to 28.7%.
With `Cc1ccc(S(=O)(=O)N2C[C@@H](C(=O)O)[C@H](SCc3ccccc3)C[C@H]2c2cccc(Cl)c2)cc1` the Activity was 11.5 to 18.1%.
In the case of `CCC[C@@H]1[C@@H](Sc2ccc(C)cc2)[C@@H](C(=O)O)[C@H](c2cccc(F)c2)N1S(=O)(=O)c1ccc(C)cc1`, the Activity was 14.7%.
`COc1ccc([C@@H]2C[C@@H](SCCc3ccccc3)[C@H](C(=O)O)CN2S(=O)(=O)c2ccc(C)cc2)cc1` showed an Activity of 28.8 to 29.9%.
`CCC[C@@H]1[C@@H](SCCC(=O)OC(C)(C)C)[C@@H](C(=O)O)[C@H](c2ccc(Cl)cc2)N1S(=O)(=O)c1ccc(Cl)cc1` was tested, and the Activity was 21.7%.
Work on `CCC[C@@H]1[C@@H](Sc2ccc(OC)cc2)[C@@H](C(=O)O)[C@H](c2cccc(F)c2)N1S(=O)(=O)c1ccc(C)cc1` yielded an Activity of 27.4%.
`Cc1ccc(S(=O)(=O)N2C[C@@H](C(=O)O)[C@H](SCc3ccc(Cl)cc3)C[C@H]2c2cccc(Br)c2)cc1` showed an Activity of 7.8 to 8%.

Species on record: Rattus norvegicus
Assay: Inhibition of rat recombinant geranylgeranyltransferase type I expressed in Escherichia coli assessed as residual enzyme activity for geranylgeranylation of RhoA at 50 uM incubated for 30 mins in presence of [3H]GGPP by scintillation counting assay relative to control
`Cc1ccc(S(=O)(=O)N2[C@H](CC3CCCC3)[C@@H](SCCC(=O)OC(C)(C)C)[C@@H](C(=O)O)[C@@H]2c2cccc(F)c2)cc1` gave an Activity of 8.2%.
In the case of `Cc1ccc(S(=O)(=O)N2[C@@H](c3cccc(C)c3)C(C(=O)O)=CC[C@H]2c2ccc(Cl)c(Cl)c2)cc1`, the Activity was 10.3%.
Work on `CCOc1ccc([C@@H]2C[C@@H](SCc3ccc(Cl)cc3)[C@H](C(=O)O)CN2S(=O)(=O)c2ccc(C)cc2)cc1` yielded an Activity of 2.6%.
`CCCCCS[C@H]1[C@@H](C(=O)O)[C@H](c2cccc(F)c2)N(S(=O)(=O)c2ccc(C)cc2)[C@@H]1CCCC` gave an Activity of 7.1%.
Molecule `CCCCS[C@@H]1C[C@@H](c2ccc(C)cc2)N(S(=O)(=O)c2ccccc2C)C[C@H]1C(=O)O` has an Activity of 19.8%.
For `COc1ccc([C@@H]2C[C@@H](Sc3ccc(Cl)cc3)[C@H](C(=O)O)CN2S(=O)(=O)c2ccc(Cl)cc2)cc1`, the Activity was 8.6%.
With `C=CCS[C@H]1[C@@H](C(=O)O)[C@H](c2ccc(Cl)cc2)N(S(=O)(=O)c2ccccc2C)[C@@H]1CCCC` the Activity was 8.4%.
`C=CCS[C@H]1[C@@H](C(=O)O)[C@H](c2ccc(C#N)cc2)N(S(=O)(=O)c2ccc(C)cc2)[C@@H]1CCCCCC` showed an Activity of 6%.
`Cc1ccc(S(=O)(=O)N2[C@@H](c3ccc(Br)cc3)C(C(=O)O)=CC[C@H]2c2ccc(Cl)c(Cl)c2)cc1` was tested, and the Activity was 11.3%.
`Cc1ccc([C@@H]2C[C@@H](Sc3ccc(Cl)cc3)[C@H](C(=O)O)CN2S(=O)(=O)c2ccccc2)cc1` was tested, and the Activity was 17.2%.
Molecule `CCCCCC[C@@H]1[C@@H](Sc2ccc(C)cc2)[C@@H](C(=O)O)[C@H](c2ccc(Cl)cc2)N1S(=O)(=O)c1ccccc1` has an Activity of 7.5%.
Molecule `C=CCS[C@H]1[C@@H](C(=O)O)[C@H](c2ccc(Cl)c(Cl)c2)N(S(=O)(=O)c2ccc(C)cc2)[C@@H]1CC1CCCC1` has an Activity of 8.6%.
Work on `Cc1ccccc1S(=O)(=O)N1C[C@@H](C(=O)O)[C@H](SCc2ccccc2)C[C@H]1c1ccc(Cl)cc1` yielded an Activity of 7.8%.
`COc1ccc([C@@H]2C[C@@H](SCCc3ccccc3)[C@H](C(=O)O)CN2S(=O)(=O)c2ccccc2C)cc1` was tested, and the Activity was 6%.
For `Cc1ccc(S(=O)(=O)N2C(c3ccc(Cl)c(Cl)c3)CC=C(C(=O)O)C2c2cccc(Cl)c2)cc1` (stereo not given), the Activity was 4.5%.
`Cc1ccc([C@@H]2C[C@@H](Sc3ccccc3)[C@H](C(=O)O)CN2S(=O)(=O)c2ccccc2C)cc1` showed an Activity of 17.5%.
With `Cc1ccc(S(=O)(=O)N2C[C@@H](C(=O)O)[C@H](Sc3ccc(Cl)cc3)C[C@H]2c2cccc(Br)c2)cc1` the Activity was 0.2 to 3.2%.
For `Cc1ccc(S(=O)(=O)N2[C@@H](c3cccc(Cl)c3)C(C(=O)O)=CC[C@H]2c2cccc(Cl)c2)cc1`, the Activity was 6%.
For `Cc1ccccc1S(=O)(=O)N1[C@@H](c2ccccc2)C(C(=O)O)=CC[C@H]1c1ccc(Cl)cc1`, the Activity was 5.8%.
Molecule `Cc1ccccc1S(=O)(=O)N1[C@@H](c2cccc(F)c2)C(C(=O)O)=CC[C@H]1c1ccc(Cl)cc1` has an Activity of 3%.
In the case of `COc1ccc([C@H]2C(C(=O)O)=C[C@@H](C(C)(C)C)N2S(=O)(=O)c2ccc(C)cc2)cc1OC`, the Activity was 6.1%.
With `CCC[C@@H]1[C@@H](SCCC(=O)OC(C)(C)C)[C@@H](C(=O)O)[C@H](c2cccc(F)c2)N1S(=O)(=O)c1ccc(C)cc1` the Activity was 7.8%.
`C=CCS[C@H]1[C@@H](C(=O)O)[C@H](c2ccc(Cl)cc2)N(S(=O)(=O)c2ccccc2C)[C@@H]1CCCCCC` showed an Activity of 6%.
For `COc1ccc([C@@H]2C[C@@H](SCc3ccccc3)[C@H](C(=O)O)CN2S(=O)(=O)c2ccc(Cl)cc2)cc1`, the Activity was 11.9%.
For `Cc1ccc(S(=O)(=O)N2C[C@@H](C(=O)O)[C@H](SCc3ccccc3)C[C@H]2c2cccc(Cl)c2)cc1`, the Activity was 8.3%.
`CCC[C@@H]1[C@@H](Sc2ccc(C)cc2)[C@@H](C(=O)O)[C@H](c2cccc(F)c2)N1S(=O)(=O)c1ccc(C)cc1` showed an Activity of 4.1%.
`COc1ccc([C@@H]2C[C@@H](SCCc3ccccc3)[C@H](C(=O)O)CN2S(=O)(=O)c2ccc(C)cc2)cc1` gave an Activity of 6.1%.
`CCC[C@@H]1[C@@H](SCCC(=O)OC(C)(C)C)[C@@H](C(=O)O)[C@H](c2ccc(Cl)cc2)N1S(=O)(=O)c1ccc(Cl)cc1` showed an Activity of 9.2%.
Molecule `CCC[C@@H]1[C@@H](Sc2ccc(OC)cc2)[C@@H](C(=O)O)[C@H](c2cccc(F)c2)N1S(=O)(=O)c1ccc(C)cc1` has an Activity of 3.5%.
For `Cc1ccc(S(=O)(=O)N2C[C@@H](C(=O)O)[C@H](SCc3ccc(Cl)cc3)C[C@H]2c2cccc(Br)c2)cc1`, the Activity was 3.2%.
